Test results reported in US11406687B2, “Activators of CXCR3 for the treatment of angiopathies of the eye” (University of Pittsburgh—Of the Commonwealth System of …, priority 2011, dated 2022).

B1: PF4: 70-amino acid CXC chemokine released from alpha-granules of activated platelets; human PF4 sequence SEQ ID NO: 3 (protein, listed as Homo sapiens)
chain: EAEEDGDLQCLCVKTTSQVRPRHITSLEVIKAGPHCPTAQLIATLKNGRKICLDLQAPLYKKIIKKLLES

Tests used:
[1] = tested on: rabbits with experimental WMD; test: Wet macular degeneration in rabbits with experimental WMD (Example 2); format: in vivo, rabbit; settings: injection into the vitreous humor, repeated as necessary
Procedure: To test the effect of the 21 amino acid IP-10 peptide (SEQ ID NO: 2) on wet macular degeneration (WMD), an experiment is conducted in rabbits with experimental WMD.
Rabbits are treated with IP-10 peptide (SEQ ID NO: 2), PF4, or a scrambled control peptide by injection into the vitreous humor. Rabbits are evaluated visually over time to evaluate the effect of each peptide. Injections are repeated as necessary.

[2] = tested on: rabbits with experimental glaucoma; test: Restenosis following glaucoma treatment in rabbits with experimental glaucoma (Example 1); format: in vivo, rabbit; settings: rabbits treated for glaucoma by drilling an anastomy; peptides injected into the aqueous humor
Procedure: To test the effect of the 21 amino acid IP-10 peptide (SEQ ID NO: 2) on restenosis following glaucoma treatment, an experiment is conducted in rabbits with experimental glaucoma.
Rabbits are treated with IP-10 peptide (SEQ ID NO: 2), PF4, or a scrambled control peptide. Rabbits are treated for glaucoma by drilling an anastomy. The peptides are then injected into the aqueous humor.
Changes in pressure are evaluated before and after treatment with the peptides.

| Molecule | Effect on WMD, evaluated visually over time [1] | Changes in pressure before and after treatment with the peptides [2] |
| --- | --- | --- |
| IP-10 peptide: 21 amino acid fragment of human IP-10, ESKAIKNLLKAVSKERSKRSP (listed as Homo sapiens) | inhibit the development of WMD and/or lead to a reversion of WMD | prevent an increase in pressure |
| B1 | inhibit the development of WMD and/or lead to a reversion of WMD | prevent an increase in pressure |
